The numbers were not newly measured in the CATMoS acute toxicity set (Mansouri et al. 2021), which cites them from elsewhere.

The nature of the data set: rat acute oral toxicity. The note with it: in vivo. The text has this: […]The data set underlying the modeling effort for this project was initially compiled by NICEATM and U.S. EPA’s CCTE. Briefly, LD50 data were collected from rat acute oral systemic toxicity tests, including limit tests, ranges/confidence intervals, and discrete LD50 values. The full data set included 21,200 LD50 entries for 15,688 substances. […] Data were reviewed to ensure that LD50 values with obvious errors in the extracted data such as unit conversion errors (e.g., comma and decimal separator misplacements) were either fixed or removed. After this review, 16,209 LD50 values remained. Many of the chemicals represented had multiple LD50 entries, requiring that a single representative value per Chemical Abstracts Service Registry Number (CASRN) identifier be defined to facilitate modeling efforts. Based on ATWG feedback and to define the representative LD50 as a protective value while accounting for the distribution across multiple LD50s, the median of the lowest quartile was computed using only discrete LD50 values (omitting limit test data and range and confidence interval data). A detailed summary of the data compilation is available online on the NICEATM webpage dedicated to the collaborative modeling project (NTP 2020).
[…][…] For categorical designations, limit test and range/confidence interval LD50 data were integrated wherever possible. As such, the number of chemicals with end point values/calls varies across the modeling end points (Table 3) based on whether chemicals had representative LD50 values and/or other data. If a chemical had both, the representative value was used to determine categorical calls rather than limit test data. Some data were useable only for certain end points and categories depending on the thresholds. For example, ranges that spanned multiple hazard categories were considered only for the binary (very toxic/nontoxic) end points and omitted from rendering a determination for hazard category assignment.
[…]The final data set comprising 11,992 chemicals was split into training and evaluation sets […], respectively. This process was performed semirandomly by ordering chemicals based on the five end points (categorical and continuous LD50 values) and partitioning every fourth record into the evaluation set accordingly. This approach was taken to ensure an equivalent distribution of the LD50 values and the different hazard categories between the training and the evaluation sets without supervised sampling of the chemicals based on structures (Figure 1A). The sources of the chemical structures were also kept equivalent between the two sets, with chemical structures obtained from DSSTox, being the highest quality, representing over 75% of each set (Figure 1B).
For `O=[N+]([O-])c1ccc(O)c(CNCCCl)c1`, the LD50 (as a rule, the dose expected to kill half of the subjects tested) is 25 mg/kg. In the case of `CC(=O)OC(C(=O)NC(N)=O)c1ccccc1` (configuration not stated), the 50% lethal dose (LD50) was 2100 mg/kg. On to `CNC(=O)Oc1cc(C)c(C)cc1Cl`, for which the 50% lethal dose (LD50) was 30 mg/kg. Regarding `CC12CC1(C)C(=O)N(c1cc(Cl)cc(Cl)c1)C2=O` (configuration not stated), the 50% lethal dose (LD50) was 7000 mg/kg. In the case of `CC(=O)Nc1c(I)c(C(=O)O)c(I)c(N(C)C(C)=O)c1I`, the LD50 was 38100 mg/kg.

In the case of `Cc1cc(Cl)ccc1OCC(=O)Nc1ccccc1`, the median lethal dose (LD50) was 4500 mg/kg. As for `CC(=O)OCCN(CCOC(C)=O)c1ccccc1`, the LD50 was 2150 mg/kg.

Turning to `CSC(=N)N`, the 50% lethal dose (LD50) was 800 mg/kg.

`CS(=O)(=O)c1ccc2c(c1)N(CCCN1CCC(C(N)=O)CC1)c1ccccc1S2`: the median lethal dose (LD50) was 976 mg/kg.

As for `Cc1ccc([N+](=O)[O-])cc1S(=O)(=O)Cl`, the LD50 was 7470 mg/kg. For `C=CC(=O)OCC(CO)(COC(=O)C=C)COC(=O)C=C`, the median lethal dose (LD50) is 1830 mg/kg. In the case of `CCN(C(C)=O)c1c(I)cc(I)c(OCCOC(C)C(=O)O)c1I` (configuration not stated), the LD50 was 1600 mg/kg.

With `CC1=NN(c2ccccc2)C(=O)C1C=O` (configuration not stated), the LD50 is 716 mg/kg. `N#Cc1sc2c(=O)c3ccccc3c(=O)c=2sc1C#N`: the LD50 is 638 mg/kg.

For `COc1ccc2oc(N)nc2c1`, the LD50 is 1000 mg/kg. Consider `C=CCOc1ccccc1C(=O)NCCO`, for which the 50% lethal dose (LD50) is 1150 mg/kg. Regarding `O=C1C(=NNc2ccccc2)C(S(=O)(=O)O)=Cc2cc(S(=O)(=O)O)cc(Nc3nc(Cl)nc(Cl)n3)c21`, the LD50 is 7460 mg/kg.

In the case of `CCCCN(COC(C)=O)N=O`, the LD50 was 1500 mg/kg. Take `O=c1c2ccccc2c2ccc3c4c(ccc1c24)c1ccc2c(=O)c4ccccc4c4nn3c1c24`: the LD50 was 13900 mg/kg.

On to `O=c1ccc2cc(CCCCN3CCN(c4ccccc4)CC3)ccc2[nH]1`, for which the median lethal dose (LD50) is 500 mg/kg. As for `Nc1n[nH]c2ccc(C(F)(F)F)cc12`, the LD50 was 90 mg/kg. As to `CC1=[N+](C)C2CCC1(c1ccccc1)c1ccccc12` (configuration not stated), the median lethal dose (LD50) is 707 mg/kg. For the compound `CN1CCC(=C2c3ccccc3C=Cc3ccccc32)CC1`, the LD50 was 295 mg/kg.

Consider `Nc1cc(-c2cccs2)no1`, for which the LD50 was 1850 mg/kg. Regarding `CC(=O)OCc1ccc2c(c1)OCO2`, the LD50 is 2100 mg/kg. Turning to `Clc1ccc(OCC2=NCCN2)cc1Cl`, the median lethal dose (LD50) is 100 mg/kg. In the case of `S=c1[nH]c2ccc(Cl)cc2[nH]1`, the median lethal dose (LD50) was 150 mg/kg. As for `c1cc2c(cc1C1CO1)O2` (configuration not stated), the median lethal dose (LD50) is 2830 mg/kg.

Consider `CCC1CC2CC3c4[nH]c5ccc(OC)cc5c4CCN(C2)C13` (configuration not stated), for which the median lethal dose (LD50) was 482 mg/kg. Turning to `c1ccc2c(OCCN3CCCC3)ccnc2c1`, the LD50 is 280 mg/kg. `CCN(CC)CCOCc1cc(Br)cc(Br)c1OC`: the LD50 was 500 mg/kg.

Turning to `CC(O)c1ccccc1` (configuration not stated), the 50% lethal dose (LD50) is 400 mg/kg. With `CCC(O)OC(C)(C)C` (configuration not stated), the 50% lethal dose (LD50) was 2520 mg/kg. In the case of `CC1(C(=O)O)C2CCC(O2)C1C(=O)O` (configuration not stated), the 50% lethal dose (LD50) is 50 mg/kg. `CON=C(Cc1cccnc1)c1ccc(Cl)cc1Cl`: the LD50 is 1700 mg/kg. For `CC(=O)N(C)C(=O)Oc1cccc(C(C)(C)C)c1`, the LD50 was 1000 mg/kg. As for `O=C(O)C(O)(c1ccccc1)C1CCCCC1` (configuration not stated), the median lethal dose (LD50) is 2670 mg/kg. For the compound `CCN1C[C@]2(COC)[C@H](O)C[C@H](OC)[C@]34C1[C@H]([C@H](OC)[C@H]23)[C@]1(OC(C)=O)[C@H]2[C@@H](OC(=O)c3ccccc3)[C@](O)(C[C@H]24)[C@@H](OC)[C@@H]1O`, the LD50 was 5.97 mg/kg.

With `CC1(CO)CN(c2ccccc2)NC1=O` (configuration not stated), the 50% lethal dose (LD50) is 566 mg/kg. Take `Cc1c(Cl)c(=O)oc2cc(OP(=O)(OCC(C)Cl)OCC(C)Cl)ccc12` (configuration not stated): the 50% lethal dose (LD50) is 686 mg/kg. `CCNC(=O)OCCSCSP(=S)(OC)OC(C)C` (configuration not stated): the median lethal dose (LD50) was 8.5 mg/kg.

As for `CCCCCCC#COC(=O)OCC`, the median lethal dose (LD50) was 2850 mg/kg. Regarding `CCCC=C1OC(=O)c2ccccc21`, the 50% lethal dose (LD50) is 1850 mg/kg.

In the case of `COP(=O)(OC)OC(C)=CC(=O)Oc1ccc(C)cc1`, the median lethal dose (LD50) was 176 mg/kg. With `O=P1(N(CCCl)CCCl)NCCCO1` (configuration not stated), the median lethal dose (LD50) was 94 mg/kg. For `Sc1c(Cl)c(Cl)c(Cl)c(Cl)c1Cl`, the LD50 is 11900 mg/kg. On to `CC(Br)C=CCl` (configuration not stated), for which the LD50 was 74 mg/kg.
